Data: patent EP2603503B1, “DABIGATRAN ETEXILATE BISMESYLATE SALT, SOLID STATE FORMS AND PROCESS FOR PREPARATION THEREOF” (ratiopharm GmbH, priority 2010, dated 2012)
Values after ≈ are worked out from the molar mass of the structure shown. Where a name gives a salt, the structure may show the parent alone. Read-outs that look alike come from different tables or passages of the source. Blank lines part the entries; values can stand above or below the compound they belong to.

Experiments:
solubility in water = format: physicochemical
[1] = storage stability (temperature / relative humidity); format: physicochemical; conditions: at least two weeks
[2] = temperature not stated; cited from earlier work

- solubility in water at 37 °C (solubility in water): 33.9 mg/mL
- stable upon storage ([1]; about 25°C, relative humidity (RH) about 60%): stable
- stable upon storage ([1]; about 40°C, RH about 75%): stable
Compound: CCCCCCOC(=O)NC(=N)c1ccc(NCc2nc3cc(C(=O)N(CCC(=O)OCC)c4ccccn4)ccc3n2C)cc1 [Dabigatran etexilate bismesylate]

- solubility in water at 37 °C (solubility in water; mesylate salt): 14.7 mg/mL
Compound: CCCCCCOC(=O)NC(=N)c1ccc(NCc2nc3cc(C(=O)N(CCC(=O)OCC)c4ccccn4)ccc3n2C)cc1 [Dabigatran etexilate monomesylate, ethyl 3-{[(2-{[(4-{N'-[(hexyloxy)carbonyl]carbamimidoyl}phenyl)amino]methyl}-1-methyl-1H-benzimid-azol-5-yl)carbonyl] (2-pyridinyl)amino}propanoate mesylate salt, reference compound]

Compound: CCCCCCOC(=O)NC(=N)c1ccc(NCc2nc3cc(C(=O)N(CCC(=O)OCC)c4ccccn4)ccc3n2C)cc1 [Dabigatran etexilate, Ethyl 3-[(2-{[4-(hexyloxycarbonylaminoiminomethyl)phenylamino]methyl}-1-methyl-1H-benzimidazole-5-carbonyl)pyridin-2-ylamino]propionate base]
- solubility in water [2]: 1.8 mg/mL (≈ 2870 µM)
